Measurements as given in publication PMC4864329, “In vitro and in vivo efficacy, toxicity, bio-distribution and resistance selection of a novel antibacterial drug candidate” (Scientific Reports, 2016).
Several values for one entry are separate records, joined by “and”; a condition that tells them apart may be missing. Equal values may be shown once. Read-outs that look alike come from different tables or passages of the source.

Key:
[1] = tested on: K. pneumoniae strain KKBO-1; experiment: In vitro selection of resistant mutants on peptide-containing MHB agarose; assay type: cell-based, Klebsiella pneumoniae; settings: KKBO-1, same experimental conditions
Experimental: Tests were performed by plating cells on SET-M33L- or colistin-containing MHB.
Selection was performed on an MHB-based selection medium containing 1% low electro-osmosis agarose as solidifying agent and 11.2 μM SET-M33L (64 μg/mL). Agarose was preferred to agar as solidifying agent due to the observed loss of antimicrobial activity of SET-M33L in selection media solidified with the latter, possibly due to the charged nature of agar. Klebsiella pneumoniae KKBO-1 strain was grown in MHB at 37 °C to OD600 0.35 and up to 5 × 10^9 colony forming units (CFU) were spread on Petri dishes containing 20 ml of the selection medium. Plates were incubated for 16–18 h at 37 °C. Colistin-containing selection medium (equimolar concentration with respect to SET-M33L) was used as control for the selection of colistin-resistant mutants. Experiments were performed in triplicate.

BALB/c mice = experiment: Acute toxicity in mice, single i.v. dose; assay type: in vivo, mouse; settings: for mortality: single i.v. dose 10 mg/Kg
Experimental: As preliminary toxicity evaluation we first compared the acute toxicity of SET-M33L and SET-M33L-PEG with that of colistin. Animals (10 BALB/c mice/group) were injected i.v. with different amounts of SET-M33L, SET-M33L-PEG or colistin, in single dose, in the range 5–40 mg/kg (Fig. 4), and were monitored for 4 days after inoculation of the peptide. […] At 40 mg/Kg SET-M33L and SET-M33L-PEG produced similar toxicity profiles with strong signs of toxicity and 90–100% mortality after 96 hours. Colistin produced strong signs of toxicity already at 10 mg/Kg: 50% mortality immediately after inoculation and 70% mortality after 24 hours. Colistin induced sudden death in 100% of mice at 20 and 40 mg/Kg.
Mice were treated by a single i.v. administration of different amounts (40, 20, 10, 5 mg/Kg) of SET-M33L, SET-M33L-PEG or colistin sulfate (Sigma-Aldrich, C4461). Signs of toxicity were checked four times a day by visual inspection. A toxicity score was assigned for the following signs: wiry coat and poor motility = mild signs; very wiry coat, abundant lachrymation and poor motility even under stimulation = manifest signs. Animals were monitored for 4 days after inoculation of the peptide. Mice were weighed every day from arrival to the last day of the experiment. Moribund animals were killed humanely to avoid unnecessary distress.

[2] = tested on: Klebsiella pneumoniae clinical isolates; assay type: cell-based
Experimental: Minimum inhibitory concentrations (MICs) of SET-M33L were determined against 76 clinical isolates of Pseudomonas aeruginosa and 73 clinical isolates of Klebsiella pneumoniae. The isolates were selected on the basis of their resistance phenotypes and major antibiotic resistance determinants, including resistance to colistin and carriage of carbapenemase-encoding genes (Table 1 and supplemental Tables S1 and S2).
MIC values were determined against a large collection of clinical isolates. Most isolates were collected during routine susceptibility testing procedures at the Clinical Microbiology Unit of Careggi University Hospital in Florence, while specific isolates were selected according to their phenotype or genotype (e.g. carriage of carbapenemase-encoding genes, inclusion in epidemic bacterial clones, resistance to colistin) from a collection of isolates already available at Department of Medical Biotechnologies, University of Siena. Detailed features of each strain, including relevant resistance phenotypes and genotypes were reported in supplemental Tables S1 and S2. MICs were determined in triplicate using a standard microdilution assay according to the guidelines of the Clinical and Laboratory Standards Institute[34]. SET-M33L was assayed using concentrations in the range 0.09–11.2 μM (0.5–64 μg/mL); testing was performed using a bacterial inoculum of 5 × 10^4 CFU/well prepared in cation-supplemented Mueller-Hinton broth (MHB) (Becton Dickinson, Franklin Lakes, NJ, USA) in a final volume of 100 μl. Results were recorded after 18–20 h of incubation at 35 °C.

Substance: colistin sulfate
- times more prone to select resistant mutants than SET-M33L [1]: at least 500
- mortality (BALB/c mice; after 24 hours): 70%
- mortality (BALB/c mice; immediately after inoculation): 50%
- sudden death (BALB/c mice; single i.v. dose 20 mg/Kg): 100%
- sudden death (BALB/c mice; single i.v. dose 40 mg/Kg): 100%
- MIC ([2]; isolate SI_K1, CARB, β/I, ESC, FQ, AG, COL, blaNDM): 32 µg/mL
- MIC ([2]; isolate SI_K2, CARB, ESC, FQ, AG, blaCTX-M): ≤ 0.5 µg/mL
- MIC ([2]; isolate SI_K3, CARB, β/I, ESC, AG, blaVIM): 0.5 µg/mL
- MIC ([2]; isolate SI_K4, CARB, β/I, ESC, FQ, blaOXA-48): 0.5 µg/mL
- MIC ([2]; isolate SI_K5, CARB, β/I, ESC, FQ, blaOXA-48): 0.5 µg/mL
- MIC ([2]; isolate SI_K6, CARB, β/I, ESC, FQ, AG, blaKPC): 0.5 µg/mL
- MIC ([2]; isolate SI_K7, CARB, β/I, ESC, FQ, blaKPC): 0.5 µg/mL
- MIC ([2]; isolate SI_K8, CARB, β/I, ESC, FQ, AG, blaKPC): ≤ 0.5 µg/mL
- MIC ([2]; isolate SI_K9, CARB, β/I, ESC, FQ, AG, blaKPC): 2 µg/mL
- MIC ([2]; isolate SI_K10, CARB, β/I, ESC, FQ, COL, blaKPC): > 32 µg/mL
- MIC ([2]; isolate SI_K11, CARB, β/I, ESC, FQ, AG, blaKPC): ≤ 0.5 µg/mL
- MIC ([2]; isolate SI_K12, phenotype none): ≤ 0.5 µg/mL
- MIC ([2]; isolate SI_K13, β/I, ESC, FQ, AG, ESBL): ≤ 0.5 µg/mL
- MIC ([2]; isolate SI_K14, phenotype none): ≤ 0.5 µg/mL
- MIC ([2]; isolate SI_K15, phenotype none): ≤ 0.5 µg/mL
- MIC ([2]; isolate SI_K16, phenotype none): ≤ 0.5 µg/mL
- MIC ([2]; isolate SI_K17, CARB, β/I, ESC, FQ, AG, COL, blaKPC): > 32 µg/mL
- MIC ([2]; isolate SI_K18, phenotype none): ≤ 0.5 µg/mL
- MIC ([2]; isolate SI_K19, ESC, ESBL): ≤ 0.5 µg/mL
- MIC ([2]; isolate SI_K20, phenotype none): ≤ 0.5 µg/mL
- MIC ([2]; isolate SI_K21, phenotype none): ≤ 0.5 µg/mL
- MIC ([2]; isolate SI_K22, phenotype none): ≤ 0.5 µg/mL
- MIC ([2]; isolate SI_K23, phenotype none): ≤ 0.5 µg/mL
- MIC ([2]; isolate SI_K24, phenotype none): ≤ 0.5 µg/mL
- MIC ([2]; isolate SI_K25, phenotype none): ≤ 0.5 µg/mL
- MIC ([2]; isolate SI_K26, phenotype none): ≤ 0.5 µg/mL
- MIC ([2]; isolate SI_K27, phenotype none): ≤ 0.5 µg/mL
- MIC ([2]; isolate SI_K28, β/I, ESC, FQ, AG, ESBL): ≤ 0.5 µg/mL
- MIC ([2]; isolate SI_K29, ESC, AG, blaCTX-M): 0.5 µg/mL
- MIC ([2]; isolate SI_K30, phenotype none): ≤ 0.5 µg/mL
- MIC ([2]; isolate SI_K31, β/I, ESC, FQ, AG, COL, ESBL): 16 µg/mL
- MIC ([2]; isolate SI_K32, phenotype none): ≤ 0.5 µg/mL
- MIC ([2]; isolate SI_K33, phenotype none): ≤ 0.5 µg/mL
- MIC ([2]; isolate SI_K34, phenotype none): ≤ 0.5 µg/mL
- MIC ([2]; isolate SI_K35, CARB, β/I, ESC, FQ, AG, blaKPC): ≤ 0.5 µg/mL
- MIC ([2]; isolate SI_K36, CARB, β/I, ESC, FQ, AG, COL, blaKPC): > 32 µg/mL
- MIC ([2]; isolate SI_K37, phenotype none): ≤ 0.5 µg/mL
- MIC ([2]; isolate SI_K38, phenotype none): ≤ 0.5 µg/mL
- MIC ([2]; isolate SI_K39, phenotype none): ≤ 0.5 µg/mL
- MIC ([2]; isolate SI_K40, CARB, β/I, ESC, FQ, AG, COL, blaKPC): > 32 μg/mL and > 24 μM
- MIC ([2]; isolate SI_K41, β/I, ESC, FQ, AG, ESBL): ≤ 0.5 μg/mL and ≤ 0.4 μM
- MIC ([2]; isolate SI_K42, phenotype none): ≤ 0.5 μg/mL and ≤ 0.4 μM
- MIC ([2]; isolate SI_K43, phenotype none): ≤ 0.5 μg/mL and ≤ 0.4 μM
- MIC ([2]; isolate SI_K44, phenotype none): ≤ 0.4 μM and ≤ 0.5 μg/mL
- MIC ([2]; isolate SI_K45, FQ): ≤ 0.5 μg/mL and ≤ 0.4 μM
- MIC ([2]; isolate SI_K46, β/I): ≤ 0.5 μg/mL and ≤ 0.4 μM
- MIC ([2]; isolate SI_K47, phenotype none): ≤ 0.5 μg/mL and ≤ 0.4 μM
- MIC ([2]; isolate SI_K48, phenotype none): ≤ 0.5 μg/mL and ≤ 0.4 μM
- MIC ([2]; isolate SI_K49, phenotype none): ≤ 0.5 μg/mL and ≤ 0.4 μM
- MIC ([2]; isolate SI_K50, phenotype none): ≤ 0.5 μg/mL and ≤ 0.4 μM
- MIC ([2]; isolate SI_K51, phenotype none): ≤ 0.5 μg/mL and ≤ 0.4 μM
- MIC ([2]; isolate SI_K52, phenotype none): ≤ 0.5 μg/mL and ≤ 0.4 μM
- MIC ([2]; isolate SI_K53, β/I, ESC, FQ, ESBL): ≤ 0.5 μg/mL and ≤ 0.4 μM
- MIC ([2]; isolate SI_K54, phenotype none): ≤ 0.5 μg/mL and ≤ 0.4 μM
- MIC ([2]; isolate SI_K55, β/I, ESC, FQ, AG, ESBL): ≤ 0.5 μg/mL and ≤ 0.4 μM
- MIC ([2]; isolate SI_K56, phenotype none): ≤ 0.5 μg/mL and ≤ 0.4 μM
- MIC ([2]; isolate SI_K57, β/I, FQ): ≤ 0.5 μg/mL and ≤ 0.4 μM
- MIC ([2]; isolate SI_K58, phenotype none): ≤ 0.5 μg/mL and ≤ 0.4 μM
- MIC ([2]; isolate SI_K59, phenotype none): ≤ 0.5 μg/mL and ≤ 0.4 μM
- MIC ([2]; isolate SI_K60, phenotype none): ≤ 0.5 μg/mL and ≤ 0.4 μM
- MIC ([2]; isolate SI_K61, CARB, β/I, ESC, FQ): ≤ 0.5 μg/mL and ≤ 0.4 μM
- MIC ([2]; isolate SI_K62, CARB, β/I, ESC, FQ, AG, ESBL): ≤ 0.5 μg/mL and ≤ 0.4 μM
- MIC ([2]; isolate SI_K63, β/I, ESC, FQ, AG, ESBL): ≤ 0.5 μg/mL and ≤ 0.4 μM
- MIC ([2]; isolate SI_K64, phenotype none): ≤ 0.5 μg/mL and ≤ 0.4 μM
- MIC ([2]; isolate SI_K65, phenotype none): ≤ 0.5 μg/mL and ≤ 0.4 μM
- MIC ([2]; isolate SI_K66, β/I, ESC, FQ, AG, ESBL): ≤ 0.5 μg/mL and ≤ 0.4 μM
- MIC ([2]; isolate SI_K67, β/I, ESC, FQ, AG, ESBL): ≤ 0.5 μg/mL and ≤ 0.4 μM
- MIC ([2]; isolate SI_K68, phenotype none): ≤ 0.5 μg/mL and ≤ 0.4 μM
- MIC ([2]; isolate SI_K69, β/I, ESC, FQ, AG, ESBL): ≤ 0.5 μg/mL and ≤ 0.4 μM
- MIC ([2]; isolate SI_K70, β/I, ESC, FQ): ≤ 0.5 μg/mL and ≤ 0.4 μM
- MIC ([2]; isolate SI_K71, CARB, β/I, ESC, FQ, blaKPC): ≤ 0.5 μg/mL and ≤ 0.4 μM
- MIC ([2]; isolate SI_K72, CARB, β/I, ESC, FQ, AG, COL, blaNDM): > 32 μg/mL and > 24 μM
- MIC ([2]; isolate SI_K73, CARB, ESC, FQ, AG, blaCTX-M): ≤ 0.5 μg/mL and ≤ 0.4 μM
